# Assay results published in ChEMBL document CHEMBL1127297, “Isolation and structure/activity features of halomon-related antitumor monoterpenes from the red alga Portieria hornemannii” (1994).
# Columns and labels:
# [1] = test system: Tumor Cell line; experiment: Tested for in vitro cytotoxicity of 60 human tumor cell lines in National Cancer Institute (NCI) and the value was expressed as LC50; type: functional; details: read-out: LC50 (the source's name)
# [2] = test system: Tumor Cell line; experiment: Tested for in vitro cytotoxicity of 60 human tumor cell lines in National Cancer Institute (NCI); type: functional
SMILES,CC50 [1] [µM],GI50 [2] [µM],TGI [2] [µM]
C=C(Cl)[C@](Cl)(CBr)CCC(Cl)=C(C)C,17,0.741,3.39
C=C(Cl)[C@](Cl)(CBr)CC[C@H](Cl)C(C)(C)Br,16.2,1.32,4.47
CC1(C)[C@H](Cl)C=C/C(=C\CCl)[C@@H]1Cl,> 100,20,47.9
CC1(C)C(Cl)CC(Br)/C(=C\CCl)C1Cl (stereo unspecified),20,1.15,4.68
C=C[C@](Cl)(CBr)CC[C@@H](Br)C(C)(C)Cl,> 100,26.1,77
C=CC1=CCC(Br)C(C)(C)C1Cl (stereo unspecified),> 100,> 100,> 100
C=CC(Cl)(CBr)CCC=C(C)C (stereo unspecified),> 100,33.1,> 100
C=C(Cl)[C@](Cl)(CBr)CCC=C(C)C,> 100,47,> 100
CC1(C)C(Br)=C(C(Cl)CBr)CCC1Br (stereo unspecified),93.3,21.9,45.7
C=C(Cl)/C(=C\Br)CCC=C(C)C,> 100,19.5,44.7
C=C(Cl)[C@](Cl)(CBr)CCC(Br)=C(C)C,13.5,0.691,3.02
C=C(Cl)[C@](Cl)(CBr)CC[C@@H](Br)C(C)(C)Cl [HALOMON],11.5,0.676,3.02
